Assay results as given in ChEMBL document CHEMBL5696442, “Discovery of type II inhibitors of TGFβ-activated kinase 1 (TAK1) and mitogen-activated protein kinase kinase kinase kinase 2 (MAP4K2)” (J Med Chem, 2015).

Experiments:
[1] = biological target: T1, EKC/KEOPS complex subunit TP53RK (Homo sapiens) (UniProt Q96S44); assay: Inhibition of PRPK ATP Loop labeling site in human A-375 cells at 0.05 uM by KiNativ Profiling analysis relative to control; type: cell-based
T1 sequence (whole entry): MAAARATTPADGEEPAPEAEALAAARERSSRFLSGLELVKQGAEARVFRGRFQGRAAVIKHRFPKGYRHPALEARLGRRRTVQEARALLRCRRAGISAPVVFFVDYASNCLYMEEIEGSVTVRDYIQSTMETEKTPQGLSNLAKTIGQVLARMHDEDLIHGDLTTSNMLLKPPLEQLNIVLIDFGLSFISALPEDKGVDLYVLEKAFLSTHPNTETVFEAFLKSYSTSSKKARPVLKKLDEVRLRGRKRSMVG

[2] = biological target: eIF-2-alpha kinase GCN2 (Homo sapiens) (UniProt Q9P2K8); assay: Inhibition of GCN2 domain2 Lys2 labeling site in human A-375 cells at 0.05 uM by KiNativ Profiling analysis relative to control; type: cell-based
Chain of eIF-2-alpha kinase GCN2 (Homo sapiens) (Q9P2K8 whole entry, the tested form may be a part): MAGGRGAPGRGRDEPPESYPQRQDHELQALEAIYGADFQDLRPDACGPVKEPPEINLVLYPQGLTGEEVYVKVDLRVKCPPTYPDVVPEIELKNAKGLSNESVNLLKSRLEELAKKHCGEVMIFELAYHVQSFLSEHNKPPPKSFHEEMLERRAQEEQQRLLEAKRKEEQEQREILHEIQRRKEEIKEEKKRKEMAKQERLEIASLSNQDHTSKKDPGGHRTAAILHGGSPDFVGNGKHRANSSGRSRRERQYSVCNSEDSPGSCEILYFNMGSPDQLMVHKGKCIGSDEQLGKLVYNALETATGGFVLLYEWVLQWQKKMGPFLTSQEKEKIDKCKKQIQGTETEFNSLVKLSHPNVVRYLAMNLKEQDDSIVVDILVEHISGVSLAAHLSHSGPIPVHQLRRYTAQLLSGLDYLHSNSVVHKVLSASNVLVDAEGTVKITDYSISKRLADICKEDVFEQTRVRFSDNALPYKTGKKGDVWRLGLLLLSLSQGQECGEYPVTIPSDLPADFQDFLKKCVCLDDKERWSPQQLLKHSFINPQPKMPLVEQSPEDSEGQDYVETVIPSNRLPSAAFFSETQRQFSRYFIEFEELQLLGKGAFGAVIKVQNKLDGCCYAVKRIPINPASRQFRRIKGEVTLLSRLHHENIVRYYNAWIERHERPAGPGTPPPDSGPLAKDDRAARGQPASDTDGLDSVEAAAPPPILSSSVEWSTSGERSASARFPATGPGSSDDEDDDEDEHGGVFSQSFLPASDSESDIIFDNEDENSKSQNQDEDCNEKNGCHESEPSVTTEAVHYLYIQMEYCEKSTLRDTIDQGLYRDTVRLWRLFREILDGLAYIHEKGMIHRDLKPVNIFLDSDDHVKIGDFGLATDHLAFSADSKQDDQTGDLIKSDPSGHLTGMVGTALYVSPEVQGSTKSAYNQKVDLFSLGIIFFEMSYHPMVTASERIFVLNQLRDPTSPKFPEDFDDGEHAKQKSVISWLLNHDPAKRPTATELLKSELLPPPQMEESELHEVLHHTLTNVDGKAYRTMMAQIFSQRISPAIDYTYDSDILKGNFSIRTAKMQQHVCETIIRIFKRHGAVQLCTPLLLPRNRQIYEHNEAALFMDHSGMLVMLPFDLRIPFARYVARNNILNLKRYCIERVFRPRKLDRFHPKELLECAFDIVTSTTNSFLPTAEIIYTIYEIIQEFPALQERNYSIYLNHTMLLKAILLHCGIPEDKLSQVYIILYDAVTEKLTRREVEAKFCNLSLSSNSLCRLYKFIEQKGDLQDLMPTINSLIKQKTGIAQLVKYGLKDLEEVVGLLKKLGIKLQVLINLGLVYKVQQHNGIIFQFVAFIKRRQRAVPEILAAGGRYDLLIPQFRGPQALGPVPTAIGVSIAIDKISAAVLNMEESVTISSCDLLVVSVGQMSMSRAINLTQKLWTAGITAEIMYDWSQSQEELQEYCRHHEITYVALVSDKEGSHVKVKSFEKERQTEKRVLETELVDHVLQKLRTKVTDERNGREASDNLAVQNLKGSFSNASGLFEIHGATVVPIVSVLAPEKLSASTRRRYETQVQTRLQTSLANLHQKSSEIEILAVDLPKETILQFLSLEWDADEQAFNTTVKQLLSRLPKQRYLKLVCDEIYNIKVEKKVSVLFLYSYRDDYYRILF

[3] = biological target: Tyrosine-protein kinase Fes/Fps (Homo sapiens, UniProt P07332); assay: Inhibition of FES (unknown origin) at 1 uM by Ambit Kinomescan binding assay relative to control; values are per cent of control
[4] = tested on: Proto-oncogene tyrosine-protein kinase receptor Ret (Homo sapiens), P07949 [M918T]; assay: Inhibition of RET M918T mutant (unknown origin) at 1 uM by Ambit Kinomescan binding assay relative to control; values are per cent of control
Chain of Proto-oncogene tyrosine-protein kinase receptor Ret (Homo sapiens), P07949 [M918T] (P07949 whole entry M918T): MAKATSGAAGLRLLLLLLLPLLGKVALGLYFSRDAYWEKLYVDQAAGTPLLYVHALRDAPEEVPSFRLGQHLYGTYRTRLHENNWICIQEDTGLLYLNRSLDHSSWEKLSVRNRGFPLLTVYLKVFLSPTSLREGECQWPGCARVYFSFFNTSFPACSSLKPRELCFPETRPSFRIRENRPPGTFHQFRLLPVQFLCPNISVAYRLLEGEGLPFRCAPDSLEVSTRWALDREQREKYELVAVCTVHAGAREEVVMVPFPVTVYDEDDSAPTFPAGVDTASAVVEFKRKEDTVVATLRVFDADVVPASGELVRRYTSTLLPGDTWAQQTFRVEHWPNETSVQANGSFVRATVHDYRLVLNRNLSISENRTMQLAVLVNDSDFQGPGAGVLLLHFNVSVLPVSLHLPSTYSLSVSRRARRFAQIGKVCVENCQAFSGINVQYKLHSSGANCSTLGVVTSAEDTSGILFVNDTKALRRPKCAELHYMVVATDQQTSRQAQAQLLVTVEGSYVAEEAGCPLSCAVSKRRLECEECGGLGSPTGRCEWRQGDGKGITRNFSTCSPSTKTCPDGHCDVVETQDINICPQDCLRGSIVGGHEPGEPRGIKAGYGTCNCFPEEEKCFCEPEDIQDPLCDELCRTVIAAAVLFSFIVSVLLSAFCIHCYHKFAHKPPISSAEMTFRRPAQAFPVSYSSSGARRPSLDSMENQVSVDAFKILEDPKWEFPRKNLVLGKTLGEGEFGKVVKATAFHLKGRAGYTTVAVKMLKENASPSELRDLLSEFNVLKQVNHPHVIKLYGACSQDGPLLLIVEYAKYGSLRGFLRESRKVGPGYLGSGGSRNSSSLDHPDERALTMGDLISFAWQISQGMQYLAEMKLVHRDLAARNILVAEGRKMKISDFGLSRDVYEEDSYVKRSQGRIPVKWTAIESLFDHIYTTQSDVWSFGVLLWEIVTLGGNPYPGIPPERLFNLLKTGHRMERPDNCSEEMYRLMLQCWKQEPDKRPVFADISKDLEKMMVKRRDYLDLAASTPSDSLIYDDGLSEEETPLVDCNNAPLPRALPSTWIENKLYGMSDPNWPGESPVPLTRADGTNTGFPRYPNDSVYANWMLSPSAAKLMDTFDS

[5] = biological target: T2, Serine/threonine-protein kinase tousled-like 1 (Homo sapiens) (UniProt Q9UKI8); assay: Inhibition of TLK1 (unknown origin) at 1 uM by Ambit Kinomescan binding assay relative to control
T2 sequence (whole entry): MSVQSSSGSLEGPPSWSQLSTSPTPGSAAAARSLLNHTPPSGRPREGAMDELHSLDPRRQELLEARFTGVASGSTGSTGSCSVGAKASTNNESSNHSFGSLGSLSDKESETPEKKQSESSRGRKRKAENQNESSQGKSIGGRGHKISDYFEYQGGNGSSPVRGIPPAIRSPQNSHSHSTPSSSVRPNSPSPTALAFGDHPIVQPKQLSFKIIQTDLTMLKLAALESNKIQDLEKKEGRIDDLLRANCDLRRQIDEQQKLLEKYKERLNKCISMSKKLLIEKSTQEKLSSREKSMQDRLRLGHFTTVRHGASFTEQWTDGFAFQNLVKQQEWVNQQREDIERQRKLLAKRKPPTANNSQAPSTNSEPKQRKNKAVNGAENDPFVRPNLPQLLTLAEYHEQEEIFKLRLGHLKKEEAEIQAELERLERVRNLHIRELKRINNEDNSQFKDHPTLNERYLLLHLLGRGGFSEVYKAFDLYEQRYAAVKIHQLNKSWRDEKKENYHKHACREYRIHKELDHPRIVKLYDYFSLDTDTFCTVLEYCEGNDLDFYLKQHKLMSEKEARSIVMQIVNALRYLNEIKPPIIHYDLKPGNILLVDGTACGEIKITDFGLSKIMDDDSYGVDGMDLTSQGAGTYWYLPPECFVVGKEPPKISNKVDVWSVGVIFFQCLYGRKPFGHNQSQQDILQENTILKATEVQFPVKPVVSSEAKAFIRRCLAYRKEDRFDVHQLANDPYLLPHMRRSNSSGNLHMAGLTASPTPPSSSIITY

[6] = biological target: Casein kinase I isoform delta (Homo sapiens) (UniProt P48730); assay: Inhibition of CK1 delta K2 labeling site in human Huh-7 cells at 1 uM by KiNativ Profiling analysis relative to control; type: cell-based
Chain of Casein kinase I isoform delta (Homo sapiens) (P48730 whole entry, looked up, canonical isoform): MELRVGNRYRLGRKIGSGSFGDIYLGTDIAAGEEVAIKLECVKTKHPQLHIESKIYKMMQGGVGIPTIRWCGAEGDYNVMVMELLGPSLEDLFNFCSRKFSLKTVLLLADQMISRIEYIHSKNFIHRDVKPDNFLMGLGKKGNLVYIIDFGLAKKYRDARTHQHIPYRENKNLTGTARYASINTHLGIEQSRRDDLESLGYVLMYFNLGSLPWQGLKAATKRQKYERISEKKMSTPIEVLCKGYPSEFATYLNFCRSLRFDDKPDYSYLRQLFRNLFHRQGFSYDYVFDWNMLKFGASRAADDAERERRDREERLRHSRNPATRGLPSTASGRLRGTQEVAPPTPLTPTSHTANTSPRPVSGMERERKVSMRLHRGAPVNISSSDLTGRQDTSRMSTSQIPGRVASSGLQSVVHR

[7] = biological target: Interferon-induced, double-stranded RNA-activated protein kinase (Homo sapiens) (UniProt P19525); assay: Inhibition of PKR Lys2 labeling site in human Huh-7 cell lysate at 1 uM by KiNativ Profiling analysis relative to control; type: subcellular
Chain of Interferon-induced, double-stranded RNA-activated protein kinase (Homo sapiens) (P19525 whole entry): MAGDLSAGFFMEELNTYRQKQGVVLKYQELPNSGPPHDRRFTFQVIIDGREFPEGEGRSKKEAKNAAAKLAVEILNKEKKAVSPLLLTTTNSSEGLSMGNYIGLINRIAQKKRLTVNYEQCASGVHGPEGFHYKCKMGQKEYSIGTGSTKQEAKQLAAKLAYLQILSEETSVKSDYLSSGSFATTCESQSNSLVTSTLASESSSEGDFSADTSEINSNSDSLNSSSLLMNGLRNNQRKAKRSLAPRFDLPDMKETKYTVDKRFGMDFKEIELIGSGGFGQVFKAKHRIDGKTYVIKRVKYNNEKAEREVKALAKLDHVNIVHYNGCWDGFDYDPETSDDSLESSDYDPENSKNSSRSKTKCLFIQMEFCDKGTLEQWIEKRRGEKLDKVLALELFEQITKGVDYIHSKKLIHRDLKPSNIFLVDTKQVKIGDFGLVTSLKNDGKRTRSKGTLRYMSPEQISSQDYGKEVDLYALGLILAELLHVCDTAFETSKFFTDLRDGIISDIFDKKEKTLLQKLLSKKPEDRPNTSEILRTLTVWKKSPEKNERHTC

[8] = biological target: Tyrosine-protein kinase ABL2 (Homo sapiens, UniProt P42684); assay: Inhibition of ARG ACT labeling site in human Huh-7 cells at 1 uM by KiNativ Profiling analysis relative to control; type: cell-based
Chain of Tyrosine-protein kinase ABL2 (P42684 whole entry): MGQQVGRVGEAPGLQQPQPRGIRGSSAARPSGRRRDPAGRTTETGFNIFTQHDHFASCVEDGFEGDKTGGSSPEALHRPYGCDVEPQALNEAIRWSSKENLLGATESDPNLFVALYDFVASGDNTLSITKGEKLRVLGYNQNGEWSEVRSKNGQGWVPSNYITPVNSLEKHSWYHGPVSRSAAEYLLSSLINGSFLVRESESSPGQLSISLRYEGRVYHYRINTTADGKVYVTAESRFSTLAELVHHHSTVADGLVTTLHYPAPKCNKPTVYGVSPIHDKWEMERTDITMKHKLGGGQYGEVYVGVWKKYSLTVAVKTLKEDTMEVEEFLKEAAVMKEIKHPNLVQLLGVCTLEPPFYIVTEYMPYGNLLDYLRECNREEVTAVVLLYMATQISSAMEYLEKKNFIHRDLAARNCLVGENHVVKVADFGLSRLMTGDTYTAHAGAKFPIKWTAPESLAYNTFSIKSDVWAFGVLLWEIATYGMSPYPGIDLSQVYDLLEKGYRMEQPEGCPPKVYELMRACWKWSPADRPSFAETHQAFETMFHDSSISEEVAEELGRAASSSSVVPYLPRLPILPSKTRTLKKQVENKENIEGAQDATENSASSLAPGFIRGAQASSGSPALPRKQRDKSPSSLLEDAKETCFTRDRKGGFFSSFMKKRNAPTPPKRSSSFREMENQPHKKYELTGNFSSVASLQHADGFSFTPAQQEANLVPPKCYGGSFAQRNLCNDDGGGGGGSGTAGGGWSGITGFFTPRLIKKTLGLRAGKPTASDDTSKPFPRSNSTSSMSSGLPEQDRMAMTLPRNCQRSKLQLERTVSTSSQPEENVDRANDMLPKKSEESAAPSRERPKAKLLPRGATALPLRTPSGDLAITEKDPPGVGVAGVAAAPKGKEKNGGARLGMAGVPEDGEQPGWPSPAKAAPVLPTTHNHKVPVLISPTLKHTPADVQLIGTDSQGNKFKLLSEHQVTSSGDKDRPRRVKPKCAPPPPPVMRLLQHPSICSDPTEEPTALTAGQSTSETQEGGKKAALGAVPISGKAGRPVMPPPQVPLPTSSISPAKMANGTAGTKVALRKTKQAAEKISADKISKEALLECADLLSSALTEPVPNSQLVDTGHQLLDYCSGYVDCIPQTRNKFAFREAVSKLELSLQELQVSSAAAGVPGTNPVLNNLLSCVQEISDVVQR

CCN1CCN(Cc2ccc(NC(=O)c3ccc(C)c(/C=C/c4cnc5[nH]ccc5c4OC)c3)cc2C(F)(F)F)CC1 gave an inhibition [1] of -1.5%, an inhibition [2] of -0.9% and a residual activity [3] of 6.8%. The % of control [4] was 0.05% and the inhibition [5] was 79%.

Molecule CCN1CCN(Cc2ccc(NC(=O)c3ccc(C)c(Oc4ccnc5[nH]ccc45)c3)cc2C(F)(F)F)CC1 has an inhibition [6] of 18.5%.

Molecule CNc1cc(Oc2cc(C(=O)Nc3cc(N4CCN(C)CC4)cc(C(F)(F)F)c3)ccc2C)ncn1 has an inhibition [7] of -3.6% and an inhibition [8] of 31.6%.
